Results taken from ChEMBL document CHEMBL5532720, “A Potent Solution for Tumor Growth and Angiogenesis Suppression via an ELR+CXCL-CXCR1/2 Pathway Inhibitor” (ACS Med Chem Lett, 2024).
The source made the active and inactive calls. No cut-off for these calls is given here.

Tests used:
CAL-33 = assay: Antiproliferative activity against human CAL-33 cells incubated for 48 hrs by XTT assay; assay type: functional, cell-based; conditions: CAL-33, 48 h
[1] = Antiproliferative activity against human Sunitinib-resistant 786-R cells incubated for 48 hrs by XTT assay; assay type: functional, cell-based
CAL-27 = assay: Antiproliferative activity against human CAL-27 cells incubated for 48 hrs by XTT assay; assay type: functional, cell-based; conditions: CAL-27, 48 h
786-0 = assay: Antiproliferative activity against human 786-0 cells incubated for 48 hrs by XTT assay; assay type: functional, cell-based; conditions: 786-0, 48 h
[2] = Antiproliferative activity against human Cisplatin and radiotherapy resistant CAL27RR cells incubated for 48 hrs by XTT assay; assay type: functional, cell-based
RCC4 = assay: Antiproliferative activity against human RCC4 cells incubated for 48 hrs by XTT assay; assay type: functional, cell-based; conditions: RCC4, 48 h
[3] = Antiproliferative activity against human Cisplatin and radiotherapy resistant CAL33RR cells incubated for 48 hrs by XTT assay; assay type: functional, cell-based
A498 [4] = assay: Antiproliferative activity against human A498 cells incubated for 48 hrs by XTT assay; assay type: functional, cell-based; conditions: A498, 48 h
A498 [5] = assay: Inhibition of cell invasion in human A498 cells cultured as 3D spheroids at 5 uM measured after 7 days by light microscopic imaging analysis relative to control; assay type: functional; conditions: A498, 168 h, time 7 day
A498 [6] = assay: Inhibition of CXCL8-induced cell migration in human A498 cells at 0.5 uM incubated for 24 hrs by crystal violet staining based analysis relative to control; assay type: functional
A498 [7] = assay: Inhibition of cell invasion in human A498 cells cultured as 3D spheroids at 5 uM measured after 7 days by light microscopic imaging analysis; assay type: functional, cell-based; conditions: time 7.0 day

Compound | IC50 (CAL-33) [µM] | IC50 [1] [µM] | IC50 (CAL-27) [µM] | IC50 (786-0) [µM] | IC50 [2] [µM] | IC50 (RCC4) [µM] | IC50 [3] [µM] | IC50 (A498 [4]) [µM] | inhibition at 5 µM (A498 [5]) [%] | inhibition at 0.5 µM (A498 [6]) [%] | inhibition (A498 [7])
Cc1ccccc1NC(=O)Nc1nc2ccc([N+](=O)[O-])cc2s1 | 4 | 6 | 4 | 8 | 4 | 10 | 4 | 6 | – | – | –
O=C(Nc1ccc(Br)cc1)Nc1nc2ccc([N+](=O)[O-])cc2s1 | 2 | 5 | 5 | 5 | 2.5 | 7 | 5 | 2.5 | > 75 | > 50 | –
O=C(Nc1cccc(Cl)c1)Nc1nc2cc([N+](=O)[O-])ccc2o1 | > 25 | > 25 | > 25 | 25 | > 25 | 25 | > 25 | 25 | – | – | –
O=C(Nc1ccc(Cl)cc1)Nc1nc2ccc([N+](=O)[O-])cc2s1 | 2.5 | 5 | 5 | 2 | 4 | 3 | 2 | 3 | > 75 | > 50 | –
Cc1noc(C)c1-c1ccc2nc(NC(=O)Nc3cccc(Cl)c3)sc2c1 | 3.5 | 4 | 1 | 2.5 | 2.5 | 5 | 3.5 | 3 | – | – | Active
Cc1ccc(-c2ccc3nc(NC(=O)Nc4cccc(Cl)c4)sc3c2)s1 | > 10 | > 10 | > 10 | > 10 | > 10 | > 10 | > 10 | – | – | – | –
O=C(Nc1cccc(Cl)c1)Nc1nc2ccc(-c3ccccn3)cc2s1 | > 25 | 8 | > 25 | 15 | > 25 | 25 | > 25 | 12 | – | – | –
O=C(Nc1nc2ccc([N+](=O)[O-])cc2s1)Nc1ccccc1Cl | 8 | 10 | 8 | 7 | 7 | 9 | 7 | 6 | – | – | –
O=C(Nc1cccc(Cl)c1)Nc1nc2ccc(-c3ccoc3)cc2s1 | > 10 | > 10 | > 10 | > 10 | > 10 | > 10 | > 10 | > 10 | – | – | –
O=C(Nc1cccc(Cl)c1)Nc1nc2ccc(-c3cccc4ccccc34)cc2s1 | 12 | 10 | > 25 | 7 | > 25 | 8 | > 25 | 5 | – | – | inactive
Cc1nn(C)cc1-c1ccc2nc(NC(=O)Nc3cccc(Cl)c3)sc2c1 | 6 | 8 | 7 | 4 | 6 | 8 | 7 | 5 | – | – | Active
O=C(Nc1cccc(Cl)c1)Nc1nc2cc([N+](=O)[O-])ccc2[nH]1 | 15 | 4 | 25 | 4 | 10 | 3 | 25 | 8 | – | – | –
Cn1cc(-c2ccc3nc(NC(=O)Nc4cccc(Cl)c4)sc3c2)cn1 | > 10 | > 10 | 7 | > 10 | > 10 | > 10 | > 10 | > 10 | – | – | –
CCOc1ccc2nc(NC(=O)Nc3cc(Cl)cc(Cl)c3)sc2c1 | 15 | > 25 | > 25 | > 25 | 20 | > 25 | > 25 | > 25 | – | – | –
O=C(Nc1ccccc1)Nc1nc2cc([N+](=O)[O-])ccc2[nH]1 | 20 | > 25 | > 25 | 25 | 15 | > 25 | > 25 | 25 | – | – | –
CCOc1ccc2nc(NC(=O)Nc3cccc(Cl)c3)sc2c1 | 4 | > 25 | > 25 | > 25 | 20 | > 25 | > 25 | > 25 | – | – | –

Compound | IC50 (CAL-33) [µM] | IC50 [1] [µM] | IC50 (CAL-27) [µM] | IC50 (786-0) [µM] | IC50 [2] [µM] | IC50 (RCC4) [µM] | IC50 [3] [µM] | IC50 (A498 [4]) [µM] | inhibition at 5 µM (A498 [5]) [%] | inhibition at 0.5 µM (A498 [6]) [%] | inhibition (A498 [7])
O=C(Nc1ccccc1)Nc1nc2ccc([N+](=O)[O-])cc2s1 | 6 | 5 | 25 | 5 | 4 | 5 | 25 | 3 | – | – | –
CS(=O)(=O)Nc1ccc2nc(NC(=O)Nc3cccc(Cl)c3)sc2c1 | > 25 | > 25 | > 25 | > 25 | > 25 | > 25 | > 25 | > 25 | – | – | –
O=C(Nc1cccc(Cl)c1)Nc1nc2ccc(-c3ccsc3)cc2s1 | > 25 | > 25 | > 25 | > 25 | > 25 | > 25 | > 25 | > 25 | – | – | –
Cc1ccc(NC(=O)Nc2nc3ccc([N+](=O)[O-])cc3o2)cc1 | 15 | 25 | 25 | 4 | 20 | 2 | 20 | 9 | – | – | –
O=C(Nc1nc2ccc([N+](=O)[O-])cc2s1)Nc1ccccc1Br | 8 | 14 | > 25 | 15 | 25 | 25 | > 25 | 20 | – | – | –
O=C(Nc1ccccc1)Nc1nc2cc([N+](=O)[O-])ccc2o1 | > 25 | > 25 | > 25 | > 25 | > 25 | > 25 | > 25 | > 25 | – | – | –
O=C(Nc1cccc(Cl)c1)Nc1nc2ccc(Br)cc2s1 | > 25 | > 25 | > 25 | > 25 | > 25 | > 25 | > 25 | > 25 | – | – | –
Cc1ccc(NC(=O)Nc2nc3ccc([N+](=O)[O-])cc3s2)cc1 | 7 | 5 | 7 | 5 | 4 | 10 | 7 | 15 | – | – | –
O=C(Nc1cccc(Cl)c1)Nc1nc2ccc(-c3cccs3)cc2s1 | > 25 | > 25 | > 25 | > 25 | > 25 | > 25 | > 25 | > 25 | – | – | –
Nc1ccc2nc(NC(=O)Nc3cccc(Cl)c3)sc2c1 | > 25 | > 25 | > 25 | 20 | 20 | 20 | > 25 | 20 | – | – | –
O=C(Nc1cccc(Cl)c1)Nc1nc2ccc(-c3ccco3)cc2s1 | > 25 | > 25 | > 25 | > 25 | > 25 | > 25 | > 25 | > 25 | – | – | –
COc1ccc(NC(=O)Nc2nc3ccc([N+](=O)[O-])cc3s2)cc1 | > 25 | 25 | > 25 | 25 | > 25 | 20 | > 25 | 20 | – | – | –
O=C(Nc1cccc(Cl)c1)Nc1nc2ccc([N+](=O)[O-])cc2o1 | > 25 | > 25 | > 25 | 20 | > 25 | 25 | 12 | 22 | – | – | –
CC(=O)Nc1ccc2nc(NC(=O)Nc3cccc(Cl)c3)sc2c1 | 20 | 25 | > 25 | > 25 | 7 | > 25 | > 25 | 25 | – | – | –
O=C(Nc1cccc(Cl)c1)Nc1nc2ccc([N+](=O)[O-])cc2s1 | 2 | 2.5 | 3 | – | 2 | 5 | 3 | – | > 75 | > 50 | –
